From US9133148B2, “Carbamate compounds and of making and using same” (Abide Therapeutics, Inc., priority 2012, dated 2015) come the findings set out here.

Experiment [1] has as its target ABHD6 (Mus musculus (Mouse), UniProt Q8R2Y0). The experiment is described as follows: In vitro competitive activity-based protein profiling (FP-Rh), mouse ABHD6. The class given is biochemical. The following applies: mouse brain membrane proteome. As to the method:
(§1) In Vitro Competitive Activity-Based Protein Profiling.
(§2) Proteomes (mouse brain membrane fraction or cell lysates) ([…], 1.0 mg/mL total protein concentration) were preincubated with varying concentrations of inhibitors at 37° C. After 30 min, FP-Rh (1.0 μL, 50 μM in DMSO) was added and the mixture was incubated for another 30 min at 37° C. Reactions were quenched with SDS loading buffer (50 μL—4×) and run on SDS-PAGE.

For experiment [2], the target named is Human MAGL (Homo sapiens (Human), UniProt Q99685). The experiment is described as follows: Competitive ABPP with recombinant human MAGL expressed in HEK293T cells. The class given is biochemical. As to the method:
as §2
Recombinant Expression of Human MAGL in HEK293T Cells.
Cell lysates were diluted with mock proteomes for use in competitive ABPP experiments.

In experiment [3] the target is MAGL (Mus musculus (Mouse), UniProt O35678). Put plainly: In vitro competitive activity-based protein profiling (FP-Rh), mouse MAGL. The class given is biochemical. The following applies: mouse brain membrane proteome. The method, then:
as §1, §2

In experiment [4] the target is FAAH (Mus musculus (Mouse), UniProt O08914). Put plainly: In vitro competitive activity-based protein profiling (FP-Rh), mouse FAAH. The class given is biochemical. Conditions: mouse brain membrane proteome. As to the method: as §1, §2
Sequence of FAAH (O08914 whole entry): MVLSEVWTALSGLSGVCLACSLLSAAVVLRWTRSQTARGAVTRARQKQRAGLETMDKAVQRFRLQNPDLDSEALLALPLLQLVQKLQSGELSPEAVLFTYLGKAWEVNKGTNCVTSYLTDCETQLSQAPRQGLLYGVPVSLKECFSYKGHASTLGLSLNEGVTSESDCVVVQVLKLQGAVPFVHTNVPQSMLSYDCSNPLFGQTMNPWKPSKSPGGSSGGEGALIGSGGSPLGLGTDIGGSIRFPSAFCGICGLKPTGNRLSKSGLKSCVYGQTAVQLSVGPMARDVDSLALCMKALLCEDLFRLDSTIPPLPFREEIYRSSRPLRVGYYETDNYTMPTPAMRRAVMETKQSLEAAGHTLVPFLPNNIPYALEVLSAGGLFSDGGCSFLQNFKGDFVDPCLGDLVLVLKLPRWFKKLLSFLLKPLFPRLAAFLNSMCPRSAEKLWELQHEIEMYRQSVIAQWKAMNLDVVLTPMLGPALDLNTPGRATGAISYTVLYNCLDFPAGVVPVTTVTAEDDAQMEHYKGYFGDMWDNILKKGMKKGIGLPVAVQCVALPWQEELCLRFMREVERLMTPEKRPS
Experiment [5] concerns the target Mouse brain MAGL (Mus musculus (Mouse), UniProt O35678). The experiment is described as follows: Mouse brain proteomes from inhibitor treated mice (oral gavage, ABPP of brain MAGL). Type of experiment: in vivo. The following applies: for Mouse brain MAGL (% inhibition at 20 mg/kg, p.o.): 4 h following administration. The method, then:
Preparation of Mouse Brain Proteomes from Inhibitor Treated Mice.
Inhibitors were administered to wild-type C57Bl/6J by oral gavage in a vehicle of polyethylene glycol.

Sequence of Human MAGL (Q99685 whole entry): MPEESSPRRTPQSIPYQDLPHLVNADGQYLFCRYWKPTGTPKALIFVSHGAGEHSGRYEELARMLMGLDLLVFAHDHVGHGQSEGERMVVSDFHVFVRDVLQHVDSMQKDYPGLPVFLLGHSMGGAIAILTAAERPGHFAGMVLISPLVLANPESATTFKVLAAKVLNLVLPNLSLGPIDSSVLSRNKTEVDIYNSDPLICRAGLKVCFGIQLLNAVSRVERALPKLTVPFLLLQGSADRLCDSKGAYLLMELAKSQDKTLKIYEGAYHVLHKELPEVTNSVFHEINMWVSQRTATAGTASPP
Sequence of Mouse brain MAGL (O35678 whole entry): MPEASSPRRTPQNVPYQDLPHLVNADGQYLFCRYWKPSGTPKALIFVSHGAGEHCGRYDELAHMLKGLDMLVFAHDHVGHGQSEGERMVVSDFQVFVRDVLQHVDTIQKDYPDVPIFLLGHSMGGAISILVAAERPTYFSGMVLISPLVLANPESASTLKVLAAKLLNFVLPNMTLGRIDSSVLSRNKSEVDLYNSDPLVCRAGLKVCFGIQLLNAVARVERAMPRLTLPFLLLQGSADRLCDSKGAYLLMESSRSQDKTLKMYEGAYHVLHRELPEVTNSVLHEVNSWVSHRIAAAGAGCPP
Sequence of MAGL (O35678 whole entry): as above
Sequence of ABHD6 (Q8R2Y0 whole entry): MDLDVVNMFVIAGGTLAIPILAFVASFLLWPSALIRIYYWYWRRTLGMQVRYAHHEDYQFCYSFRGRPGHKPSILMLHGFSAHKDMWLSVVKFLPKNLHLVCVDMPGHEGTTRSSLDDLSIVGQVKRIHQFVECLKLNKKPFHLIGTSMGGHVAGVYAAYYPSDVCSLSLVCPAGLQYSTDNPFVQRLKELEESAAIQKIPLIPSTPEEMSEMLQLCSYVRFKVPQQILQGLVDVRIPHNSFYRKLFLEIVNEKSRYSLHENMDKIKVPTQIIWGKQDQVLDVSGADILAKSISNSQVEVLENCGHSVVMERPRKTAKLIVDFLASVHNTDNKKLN

What is called IC50 is the concentration that gives 50% inhibition. What is called ED50 is the dose at which the effect has come halfway, by size or by number of responders. Low readings indicate greater potency, high ones weaker potency. Consider `COc1cc(N2CCOCC2)ccc1CN1CCN(C(=O)OC(C(F)(F)F)C(F)(F)F)CC1` [Example 9s, 1,1,1,3,3,3-hexafluoropropan-2-yl 4-(2-methoxy-4-morpholinobenzyl)piperazine-1-carboxylate], for which the IC50 in experiment [1] (competitive ABPP (Table 7)) is 100 to 1000 nM; in experiment [2] (hMAGL in HEK293T cell lysates (Table 7)), less than 100 nM; in experiment [3] (competitive ABPP (Table 7)), less than 100 nM; in experiment [4] (competitive ABPP (Table 7)) it was greater than 6250 nM. Besides, in experiment [5] (po), the ED50 is less than 4 mg/kg.
As to `O=C(OC(C(F)(F)F)C(F)(F)F)N1CCN(C(c2ccc(Br)cc2)c2ccc(Br)cc2)CC1` [Example 2c, 1,1,1,3,3,3-hexafluoropropan-2-yl 4-(bis(4-bromophenyl)methyl)-piperazine-1-carboxylate], the concentration for half-maximal inhibition (IC50) in experiment [1] (competitive ABPP) is greater than 1000 nM; in experiment [2] (hMAGL in HEK293T cell lysates) it was less than 100 nM; in experiment [3] (competitive ABPP), 100 to 1000 nM; in experiment [4] (competitive ABPP), greater than 10000 nM. Further, the “Mouse brain MAGL (% inhibition at 20 mg/kg, p.o.)” value in experiment [5] worked out at 94%.
With `O=C(OC(C(F)(F)F)C(F)(F)F)N1CCC(C(c2ccc3c(c2)OCO3)c2ccc3c(c2)OCO3)CC1` [Example 1c, 1,1,1,3,3,3-hexafluoropropan-2-yl 4-(bis(benzo[d][1,3]dioxol-5-yl)methyl)piperidine-1-carboxylate], the IC50 in experiment [1] (competitive ABPP) was greater than 1000 nM; in experiment [2] (hMAGL in HEK293T cell lysates), less than 100 nM; in experiment [3] (competitive ABPP), less than 100 nM; in experiment [4] (competitive ABPP), greater than 10000 nM. In addition, the “Mouse brain MAGL (% inhibition at 20 mg/kg, p.o.)” value in experiment [5] is recorded as greater than 95%.
As to `O=C(OC(C(F)(F)F)C(F)(F)F)N1CCC(C(O)(c2ccc3c(c2)OCO3)c2ccc3c(c2)OCO3)CC1` [Example 1a, 1,1,1,3,3,3-hexafluoropropan-2-yl 4-(bis(benzo[d][1,3]dioxol-5-yl)(hydroxy)methyl)piperidine-1-carboxylate], the half-maximal inhibitory concentration (IC50) in experiment [1] (competitive ABPP) is greater than 1000 nM; in experiment [2] (hMAGL in HEK293T cell lysates) it was less than 100 nM; in experiment [3] (competitive ABPP) it was less than 100 nM; in experiment [4] (competitive ABPP) it was greater than 10000 nM. Also, the “Mouse brain MAGL (% inhibition at 20 mg/kg, p.o.)” value in experiment [5] was greater than 95%.
Consider `O=C(OC(C(F)(F)F)C(F)(F)F)N1CCN(C(c2ccc3c(c2)OCO3)c2ccc3c(c2)OCO3)CC1` [Example 2d, 1,1,1,3,3,3-hexafluoropropan-2-yl 4-(bis(benzo[d][1,3]dioxol-5-yl)methyl)piperazine-1-carboxylate], for which the IC50 in experiment [1] (competitive ABPP) is 100 to 1000 nM; in experiment [2] (hMAGL in HEK293T cell lysates), less than 100 nM; in experiment [3] (competitive ABPP), less than 100 nM; in experiment [4] (competitive ABPP), greater than 10000 nM. Further, the “Mouse brain MAGL (% inhibition at 20 mg/kg, p.o.)” value in experiment [5] is recorded as greater than 95%.
For the molecule `O=C(OC(C(F)(F)F)C(F)(F)F)N1CCN(C(c2ccc(F)cc2)c2ccc(F)cc2)CC1` [Example 2a, 1,1,1,3,3,3-hexafluoropropan-2-yl 4-(bis(4-fluorophenyl)methyl)-piperazine-1-carboxylate], the IC50 is greater than 1000 nM in experiment [1] (competitive ABPP), less than 100 nM in experiment [2] (hMAGL in HEK293T cell lysates), less than 100 nM in experiment [3] (competitive ABPP) and greater than 10000 nM in experiment [4] (competitive ABPP). The “Mouse brain MAGL (% inhibition at 20 mg/kg, p.o.)” value in experiment [5] was greater than 95%.
For `O=C(OC(C(F)(F)F)C(F)(F)F)N1CCN(Cc2cccc(Oc3ccccc3)c2)CC1` [Example 3a, 1,1,1,3,3,3-hexafluoropropan-2-yl 4-(3-phenoxybenzyl)piperazine-1-carboxylate], the IC50 in experiment [1] (competitive ABPP) was less than 100 nM; in experiment [2] (hMAGL in HEK293T cell lysates) it was less than 100 nM; in experiment [3] (competitive ABPP) it was less than 100 nM; in experiment [4] (competitive ABPP), greater than 10000 nM. The “Mouse brain MAGL (% inhibition at 20 mg/kg, p.o.)” value in experiment [5] is reported as greater than 95%.
Take `CC(C)(C)c1ccc(S(=O)(=O)N2CCN(C(=O)OC(C(F)(F)F)C(F)(F)F)CC2)cc1` [Example 4c, 1,1,1,3,3,3-hexafluoropropan-2-yl 4-((4-(tert-butyl)phenyl)sulfonyl)-piperazine-1-carboxylate]: the IC50 was greater than 1000 nM in experiment [1] (competitive ABPP), less than 100 nM in experiment [2] (hMAGL in HEK293T cell lysates), less than 100 nM in experiment [3] (competitive ABPP) and greater than 10000 nM in experiment [4] (competitive ABPP). Also, the “Mouse brain MAGL (% inhibition at 20 mg/kg, p.o.)” value in experiment [5] is reported as greater than 95%.
